Laboratory results published in patent publication US20070071746A1, “C/CLP antagonists and methods of use thereof” (MEDIMMUNE, INC., priority 2005, published 2007).
Entries after “also recorded” stand apart in the source; their conditions may differ.

What was measured:
[1] = 4-Mu-Chitotrioside assay, activity of recombinant AMCase proteins; format: biochemical; conditions: 4-Mu-Chitotrioside assay (soluble substrate)
Description: Activity Assays Used: Chitinase activity was assayed using two different but commonly used assays. One assay (4-Mu-Chitotrioside assay) utilized 4-methylumbelliferyl-β-D-N,N′,N″-triacetylchitotrise as a substrate (see, e.g., Hollak et al., 1994, J. Clin. Invest. 93: 1288-92). The other (chitin-azure assay) utilized chitin azure as a substrate (see, e.g., Thompson et al., (2001) Appl Environ Microbiol. 67:4001-4008).

peritoneal macrophages = assay: Cytokine induction assay with recombinant mYKL-40; format: cell-based, mouse; conditions: for secretion of IL-6 / secretion of KC: increasing amounts of recombinant mYKL-40
Description: Isolation of peritoneal macrophaaes: 4-6 week old Balb/c mice were injected i.p. with 1 ml of fluid thioglyclollate medium (Becton, Dickinson and Company, Sparks, Md.). 4 days later peritoneal macrophages were harvested by lavage (ice-cold PBS w/o Ca, Mg, 10 ml/mouse). Cells were washed with PBS twice and resuspended in 10% FBS/RPMI 1640 medium (Glutamax, 25 mM Hepes, 1×antibiotic-antimycotic (Invitrogen, Grand Island, N.Y.) at 2.5×10^6 cells/ml. Cells were plated in 96 well TC plates (100 μl/well). After overnight incubation at 37° C. nonadherent cells were removed by washing with serum free RPMI 1640. 100 μl/well of 10% FBS/RPMI 1640 were added and cells were cultured for 72 hr.
Cytokine Induction Assays: isolated peritoneal macrophages (described above) were washed with PBS, proteins and antibodies, concentrated supernatants, were added in 2% FBS/RPMI 1640, 100 μl/well. After 18 hr incubation supernatants were collected and cytokine concentrations were measured using mouse cytokine multiplex kit (Upstate, Lake Placid, N.Y.) on Luminex 100.

[2] = target: T1, human AMCase / human galectin 4 (Homo sapiens, UniProt P56470); assay: C/CLP-Galectin Interaction ELISA; format: binding
T1 construct: 6xHis (C); made in house; host or cells: HEK293 (AMCase)
T1 sequence (P56470 1-323): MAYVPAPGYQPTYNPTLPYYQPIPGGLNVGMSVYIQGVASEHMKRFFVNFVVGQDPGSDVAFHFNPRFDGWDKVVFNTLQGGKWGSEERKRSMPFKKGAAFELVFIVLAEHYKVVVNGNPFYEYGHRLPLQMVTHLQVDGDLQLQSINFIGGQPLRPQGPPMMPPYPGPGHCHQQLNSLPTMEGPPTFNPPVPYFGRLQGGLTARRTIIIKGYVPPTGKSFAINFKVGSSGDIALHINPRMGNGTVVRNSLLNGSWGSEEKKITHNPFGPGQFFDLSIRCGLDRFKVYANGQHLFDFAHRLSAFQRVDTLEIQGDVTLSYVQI
Description: (§1) C/CLP-Galectin Interaction ELISA: Galectin is immobilized on a microtiter plate in DPBS over night at 2-8° C. The plates are then washed with DPBS, 0.1% Tween 20 and blocked for 1 hour at room temperature. Serial dilutions of biotin labeled AMCase are added to each well and incubated for ˜1 hour at room temperature followed by HRP labeled streptavidin. Horseradish peroxydase activity is detected with TMB substrate (KPL, MD) and the reaction is quenched with 1% H2SO4. The absorbance is read at 450 nm.

Jurkat T cells = assay: Galectin-3 induced apoptosis in Jurkat T cells; format: cell-based, human
Jurkat cells = assay: Galectin Induced Calcium Flux; format: cell-based, human; conditions: for inhibition of galectin-3 induced calcium flux: 200 μg/ml, versus 100 μg/ml; for calcium flux in Jurkat cells: galectin-3 40 μg/ml
Description: Galectin Induced Calcium Flux: Jurkat cells were labeled with Fluo-4AM and Fura-Red. galectin-3 (40 μg/ml) was added to the cells and Ca flux was analyzed as FL1/FL3. Analysis was performed for 5 minutes. For interaction analysis gal-3 (40μg/ml) is pre-incubated with huAMCase (100-200 μg/ml) or huChTrase (100-200 μg/ml) for 15 mins at RT prior to addition.

[3] = tested on: memory T cells isolated from human blood; assay: Galectin-3 induced apoptosis in memory T cells; format: cell-based
[4] = target: T2, mouse AMCase / mouse galectin-3 (Mus musculus, UniProt Q91XA9); assay: C/CLP-Galectin Interaction ELISA; format: binding; conditions: data not shown
T2 construct: 6xHis (C); made in house; host or cells: HEK293 (FreeStyle 293), secreted and purified on nickel NTA
T2 sequence (Q91XA9 22-473): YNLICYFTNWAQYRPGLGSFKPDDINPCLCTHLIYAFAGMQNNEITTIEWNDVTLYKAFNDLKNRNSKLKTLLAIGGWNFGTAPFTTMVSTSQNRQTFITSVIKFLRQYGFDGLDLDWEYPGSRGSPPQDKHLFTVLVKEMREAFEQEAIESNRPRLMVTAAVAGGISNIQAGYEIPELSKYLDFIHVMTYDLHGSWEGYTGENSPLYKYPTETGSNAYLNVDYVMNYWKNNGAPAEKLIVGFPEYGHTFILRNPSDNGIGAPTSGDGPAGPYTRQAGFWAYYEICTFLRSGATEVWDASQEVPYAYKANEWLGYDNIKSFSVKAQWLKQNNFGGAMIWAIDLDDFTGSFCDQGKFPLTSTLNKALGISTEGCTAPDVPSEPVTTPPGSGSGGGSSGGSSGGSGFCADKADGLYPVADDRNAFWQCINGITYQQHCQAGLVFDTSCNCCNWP
Description: as §1

[5] = target: T3, mouse AMCase / mouse galectin-4 (Mus musculus, UniProt Q91XA9); assay: C/CLP-Galectin Interaction ELISA; format: binding; conditions: data not shown
T3 construct: 6xHis (C); made in house; host or cells: HEK293 (FreeStyle 293), secreted and purified on nickel NTA
T3 sequence (Q91XA9 22-473): as above
Description: as §1

galectin 1 = galectin 1 (Homo sapiens, UniProt P09382); assay: C/CLP-Galectin Interaction ELISA; format: binding
Chain of galectin 1 (P09382 2-135 limits assumed): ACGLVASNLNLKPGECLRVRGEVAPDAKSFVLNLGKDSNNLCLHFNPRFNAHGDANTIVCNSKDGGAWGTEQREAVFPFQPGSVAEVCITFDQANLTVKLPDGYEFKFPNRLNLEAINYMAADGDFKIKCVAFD
Description: as §1

galectin 2 = target: T4, galectin 2 (Homo sapiens, UniProt P05162); assay: C/CLP-Galectin Interaction ELISA; format: binding
T4 sequence (P05162 1-132): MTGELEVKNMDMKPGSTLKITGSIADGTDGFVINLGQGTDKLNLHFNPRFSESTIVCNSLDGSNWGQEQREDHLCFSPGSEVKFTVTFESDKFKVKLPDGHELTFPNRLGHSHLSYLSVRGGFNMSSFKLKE
Description: as §1

galectin 7 = galectin 7 (Homo sapiens, UniProt P47929); assay: C/CLP-Galectin Interaction ELISA; format: binding
Chain of galectin 7 (P47929 whole entry): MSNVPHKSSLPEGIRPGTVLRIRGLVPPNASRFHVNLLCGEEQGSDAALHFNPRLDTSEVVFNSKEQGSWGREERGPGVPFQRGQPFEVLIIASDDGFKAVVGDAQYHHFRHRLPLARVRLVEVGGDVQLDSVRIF
Description: as §1

galectin 8 = target: T5, galectin 8 (Homo sapiens, UniProt O00214); assay: C/CLP-Galectin Interaction ELISA; format: binding
T5 sequence (O00214 1-317): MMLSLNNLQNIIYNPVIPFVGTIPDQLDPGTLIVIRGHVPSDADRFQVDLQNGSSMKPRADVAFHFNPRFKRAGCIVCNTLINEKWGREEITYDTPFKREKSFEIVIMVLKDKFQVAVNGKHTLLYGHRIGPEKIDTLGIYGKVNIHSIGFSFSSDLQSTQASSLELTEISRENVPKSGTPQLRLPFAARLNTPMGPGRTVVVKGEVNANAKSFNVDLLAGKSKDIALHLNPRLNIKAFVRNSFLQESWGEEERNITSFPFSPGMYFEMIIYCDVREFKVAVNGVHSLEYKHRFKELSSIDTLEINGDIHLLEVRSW
Description: as §1

[6] = tested on: human AMCase / human galectin 3; assay: C/CLP-Galectin Interaction ELISA; format: binding; conditions: listed as full length human AMCase
Description: as §1

[7] = listed as recombinant mouseYKL-40

Compound: D136A: AMCase full length protein containing the D136A mutation [Antibody D136A]
- activity of recombinant AMCase proteins [1]: no activity; also recorded: completely abolished activity

Compound: mYKL-40: recombinant mouse YKL-40/BRP-39
- induction of IL-10 (peritoneal macrophages): induced
- induction of RANTES (peritoneal macrophages): induced
- induction of TNF-α (peritoneal macrophages): induced
- secretion of IL-6 (peritoneal macrophages): increase
- secretion of KC (peritoneal macrophages): increase
- secretion of IL-6 (peritoneal macrophages; [7]): dose sensitive increase
- secretion of KC (peritoneal macrophages; [7]): dose sensitive increase

Compound: OC[C@H]1O[C@@H](O[C@H]2[C@H](O)[C@@H](O)C(O)O[C@@H]2CO)[C@H](O)[C@@H](O)[C@H]1O (some centres unmarked) [lactose, reference compound]
- inhibition of binding of Human AMCase to Galectin 4 [2]: inhibited
- effect on galectin-3 induced apoptosis of Jurkat T cells (Jurkat T cells; addition of lactose): abolished; also recorded: reduced the levels of apoptosis seen to nearly background levels

Compound: AMCase-TR: recombinant AMCase protein lacking the CBD
- activity of recombinant AMCase proteins [1]: high activity
- activity of recombinant AMCase proteins ([1]; listed as truncated form): active

Compound: Cht: recombinant human chitotriosidase
- inhibition of galectin-3 mediated calcium flux (Jurkat cells): inhibited
- inhibition of galectin-3 induced calcium flux (Jurkat cells): not

Compound: rhuGal-3: recombinant human Galectin 3
- apoptosis of Jurkat T cells (Jurkat T cells; 1 μg rhuGal-3): Little to no apoptosis
- apoptosis of Jurkat T cells (Jurkat T cells; 5, 10 and 30 μg rhuGal-3): increased apoptosis
- apoptosis of Jurkat T cells (Jurkat T cells; 5, 10 and 30 μg rhuGal-3, listed as Galectin-3): induce apoptosis
- apoptosis of memory T cells ([3]; galectin-3 alone): induced apoptosis
- calcium flux in Jurkat cells (Jurkat cells; listed as Galectin): results in calcium flux
- calcium flux in Jurkat cells (Jurkat cells; listed as Galectin-3): mediate calcium flux

Compound: mouse AMCase: recombinant mouse acidic mammalian chitinase
- binding of mouse AMCase to mouse galectin-3 [4]: bind
- binding of mouse AMCase to mouse galectin-4 [5]: bind

Compound: full length AMCase: recombinant full length AMCase protein
- activity of recombinant AMCase proteins [1]: high activity; also recorded: active

Compound: AMCase: recombinant human acidic mammalian chitinase
- binding of AMCase to galectin 1 (galectin 1): not
- binding of AMCase to galectin 2 (galectin 2): not
- binding of AMCase to galectin 7 (galectin 7): not
- binding of AMCase to galectin 8 (galectin 8): not
- binding of AMCase to galectin 3 [6]: confirmed; also recorded: binds
- binding of AMCase to galectin 4 ([2]; listed as full length human AMCase): confirmed; also recorded: binds
- inhibition of galectin-3 induced apoptosis of memory T cells ([3]; 10 μg galectin-3, 50 μg or more of AMCase): inhibited; also recorded: significant inhibition
- inhibition of galectin-3 mediated calcium flux (Jurkat cells): inhibited
- inhibition of galectin-3 induced calcium flux (Jurkat cells): further inhibition
